Experimental data from ChEMBL document CHEMBL5291721, “A preclinical secondary pharmacology resource illuminates target-adverse drug reaction associations of marketed drugs” (Nat Commun, 2023).

Experiments:
[1] = target: Gamma-aminobutyric acid receptor subunit alpha-1 (Rattus norvegicus, UniProt P62813)
[2] = target: Kappa-type opioid receptor (Homo sapiens, UniProt P41145)
[3] = target: Sodium-dependent noradrenaline transporter (Homo sapiens, UniProt P23975)
[4] = target: Beta-1 adrenergic receptor (Homo sapiens, UniProt P08588); type: functional
Sequence of Beta-1 adrenergic receptor (P08588 whole entry): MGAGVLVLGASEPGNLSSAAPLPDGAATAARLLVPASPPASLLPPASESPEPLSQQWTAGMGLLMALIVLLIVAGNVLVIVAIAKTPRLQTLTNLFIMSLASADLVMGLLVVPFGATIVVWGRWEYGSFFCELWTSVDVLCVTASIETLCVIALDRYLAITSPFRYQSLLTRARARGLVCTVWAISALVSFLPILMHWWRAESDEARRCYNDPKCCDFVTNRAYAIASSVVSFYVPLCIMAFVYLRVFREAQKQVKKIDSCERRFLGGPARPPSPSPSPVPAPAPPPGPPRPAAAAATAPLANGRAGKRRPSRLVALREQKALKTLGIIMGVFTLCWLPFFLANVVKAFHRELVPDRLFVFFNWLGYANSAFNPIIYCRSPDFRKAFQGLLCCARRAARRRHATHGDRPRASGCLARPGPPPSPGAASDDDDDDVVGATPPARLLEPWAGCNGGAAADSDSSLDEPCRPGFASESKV

Motilin receptor = Motilin receptor (Homo sapiens, UniProt O43193)
Sequence of Motilin receptor (O43193 whole entry): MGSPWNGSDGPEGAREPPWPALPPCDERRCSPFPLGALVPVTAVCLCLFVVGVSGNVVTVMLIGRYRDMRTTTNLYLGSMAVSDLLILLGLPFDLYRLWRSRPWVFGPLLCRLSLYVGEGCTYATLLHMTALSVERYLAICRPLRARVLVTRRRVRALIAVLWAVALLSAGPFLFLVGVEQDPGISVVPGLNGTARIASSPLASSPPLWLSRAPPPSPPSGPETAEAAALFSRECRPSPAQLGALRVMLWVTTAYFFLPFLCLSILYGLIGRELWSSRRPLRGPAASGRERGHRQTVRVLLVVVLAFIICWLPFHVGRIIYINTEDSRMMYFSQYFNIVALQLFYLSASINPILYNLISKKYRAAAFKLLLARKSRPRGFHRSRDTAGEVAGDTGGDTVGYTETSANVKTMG

[5] = target: Delta-type opioid receptor (Homo sapiens, UniProt P41143)
Sequence of Delta-type opioid receptor (P41143 whole entry): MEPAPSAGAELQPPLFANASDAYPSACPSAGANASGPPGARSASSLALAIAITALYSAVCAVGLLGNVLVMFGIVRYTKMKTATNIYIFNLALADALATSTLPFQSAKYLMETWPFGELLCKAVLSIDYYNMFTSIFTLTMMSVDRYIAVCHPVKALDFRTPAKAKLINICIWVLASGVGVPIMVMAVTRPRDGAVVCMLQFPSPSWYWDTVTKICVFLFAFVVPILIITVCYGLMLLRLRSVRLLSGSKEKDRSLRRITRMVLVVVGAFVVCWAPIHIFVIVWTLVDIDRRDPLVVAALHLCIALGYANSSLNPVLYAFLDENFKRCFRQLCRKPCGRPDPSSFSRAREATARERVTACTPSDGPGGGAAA

[6] = target: T1, Alpha-1A adrenergic receptor (Homo sapiens, UniProt P35348); type: functional, cell-based
T1 sequence (P35348 whole entry): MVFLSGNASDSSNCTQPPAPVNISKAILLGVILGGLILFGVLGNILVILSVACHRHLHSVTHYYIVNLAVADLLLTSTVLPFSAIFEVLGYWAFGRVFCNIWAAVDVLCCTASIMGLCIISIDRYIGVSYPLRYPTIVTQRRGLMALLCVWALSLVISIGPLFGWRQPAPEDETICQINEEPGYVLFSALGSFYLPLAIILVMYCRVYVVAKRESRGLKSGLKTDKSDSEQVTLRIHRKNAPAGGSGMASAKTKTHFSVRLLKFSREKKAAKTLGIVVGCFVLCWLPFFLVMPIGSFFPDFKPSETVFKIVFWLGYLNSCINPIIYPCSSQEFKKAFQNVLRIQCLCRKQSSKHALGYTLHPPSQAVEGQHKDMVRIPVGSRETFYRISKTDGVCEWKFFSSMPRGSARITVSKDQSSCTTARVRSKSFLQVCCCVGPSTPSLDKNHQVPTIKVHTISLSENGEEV

[7] = target: T1, Alpha-1A adrenergic receptor; type: functional, cell-based; remark: listed apart in the source
[8] = target: T2, Alpha-2C adrenergic receptor (Homo sapiens, UniProt P18825); type: functional
T2 sequence (P18825 whole entry): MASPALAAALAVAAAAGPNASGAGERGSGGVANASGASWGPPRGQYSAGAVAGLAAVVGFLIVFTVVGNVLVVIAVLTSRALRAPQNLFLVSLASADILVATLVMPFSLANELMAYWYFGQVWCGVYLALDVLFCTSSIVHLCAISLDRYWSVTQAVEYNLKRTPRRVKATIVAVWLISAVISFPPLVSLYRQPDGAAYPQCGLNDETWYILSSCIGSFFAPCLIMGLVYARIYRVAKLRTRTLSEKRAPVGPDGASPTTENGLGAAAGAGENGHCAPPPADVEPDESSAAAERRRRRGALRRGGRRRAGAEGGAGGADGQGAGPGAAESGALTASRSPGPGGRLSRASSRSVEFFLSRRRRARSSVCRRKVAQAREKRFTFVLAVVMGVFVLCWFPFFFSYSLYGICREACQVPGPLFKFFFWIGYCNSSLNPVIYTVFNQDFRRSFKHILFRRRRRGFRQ

Adenosine receptor A2a = Adenosine receptor A2a (Homo sapiens, UniProt P29274)
Sequence of Adenosine receptor A2a (P29274 whole entry): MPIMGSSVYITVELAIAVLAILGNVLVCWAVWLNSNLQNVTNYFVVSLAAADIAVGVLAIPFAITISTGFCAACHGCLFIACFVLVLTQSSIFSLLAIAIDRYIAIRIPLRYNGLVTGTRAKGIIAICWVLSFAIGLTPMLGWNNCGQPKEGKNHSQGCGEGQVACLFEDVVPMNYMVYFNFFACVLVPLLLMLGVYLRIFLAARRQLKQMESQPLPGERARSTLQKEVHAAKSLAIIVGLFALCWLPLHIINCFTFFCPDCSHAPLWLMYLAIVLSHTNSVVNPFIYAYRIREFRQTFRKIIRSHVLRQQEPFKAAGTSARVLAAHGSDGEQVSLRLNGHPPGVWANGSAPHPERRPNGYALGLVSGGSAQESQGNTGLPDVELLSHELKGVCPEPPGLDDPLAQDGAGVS

Bile salt export pump = Bile salt export pump (Homo sapiens, UniProt O95342); type: functional
Sequence of Bile salt export pump (O95342 whole entry): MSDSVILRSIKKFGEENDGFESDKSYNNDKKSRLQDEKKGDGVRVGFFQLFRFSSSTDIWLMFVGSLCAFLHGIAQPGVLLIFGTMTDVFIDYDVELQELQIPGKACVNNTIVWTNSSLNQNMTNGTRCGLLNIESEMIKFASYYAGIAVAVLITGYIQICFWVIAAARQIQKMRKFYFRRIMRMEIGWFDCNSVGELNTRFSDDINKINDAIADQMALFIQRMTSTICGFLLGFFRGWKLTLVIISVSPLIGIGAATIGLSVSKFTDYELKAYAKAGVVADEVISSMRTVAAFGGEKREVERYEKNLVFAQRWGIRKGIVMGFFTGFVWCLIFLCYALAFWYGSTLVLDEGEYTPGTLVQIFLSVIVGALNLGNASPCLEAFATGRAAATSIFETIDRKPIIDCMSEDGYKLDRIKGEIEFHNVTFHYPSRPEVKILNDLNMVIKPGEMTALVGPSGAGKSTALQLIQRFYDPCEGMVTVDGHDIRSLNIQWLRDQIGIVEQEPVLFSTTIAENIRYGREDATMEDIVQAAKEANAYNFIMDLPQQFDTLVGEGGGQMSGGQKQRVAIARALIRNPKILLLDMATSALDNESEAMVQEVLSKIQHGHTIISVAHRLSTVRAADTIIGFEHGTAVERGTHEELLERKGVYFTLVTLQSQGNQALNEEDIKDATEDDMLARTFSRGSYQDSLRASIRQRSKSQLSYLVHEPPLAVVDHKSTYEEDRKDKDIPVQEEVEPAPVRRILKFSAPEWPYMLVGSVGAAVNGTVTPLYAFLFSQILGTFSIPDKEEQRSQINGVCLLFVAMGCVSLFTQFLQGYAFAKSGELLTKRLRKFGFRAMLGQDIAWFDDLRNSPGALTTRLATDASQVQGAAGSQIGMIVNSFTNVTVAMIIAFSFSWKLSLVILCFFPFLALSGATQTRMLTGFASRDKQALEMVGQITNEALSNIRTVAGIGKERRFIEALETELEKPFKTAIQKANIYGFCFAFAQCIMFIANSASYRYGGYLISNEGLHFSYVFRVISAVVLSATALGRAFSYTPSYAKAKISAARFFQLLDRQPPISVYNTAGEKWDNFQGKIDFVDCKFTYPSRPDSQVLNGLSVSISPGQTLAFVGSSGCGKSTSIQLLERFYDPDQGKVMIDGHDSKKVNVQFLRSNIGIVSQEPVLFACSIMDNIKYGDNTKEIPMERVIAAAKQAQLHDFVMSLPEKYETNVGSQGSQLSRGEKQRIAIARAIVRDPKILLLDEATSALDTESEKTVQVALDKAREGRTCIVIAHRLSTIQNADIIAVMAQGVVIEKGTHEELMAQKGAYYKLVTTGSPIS

Melanocortin receptor 3 = Melanocortin receptor 3 (Homo sapiens, UniProt P41968)
Sequence of Melanocortin receptor 3 (P41968 whole entry): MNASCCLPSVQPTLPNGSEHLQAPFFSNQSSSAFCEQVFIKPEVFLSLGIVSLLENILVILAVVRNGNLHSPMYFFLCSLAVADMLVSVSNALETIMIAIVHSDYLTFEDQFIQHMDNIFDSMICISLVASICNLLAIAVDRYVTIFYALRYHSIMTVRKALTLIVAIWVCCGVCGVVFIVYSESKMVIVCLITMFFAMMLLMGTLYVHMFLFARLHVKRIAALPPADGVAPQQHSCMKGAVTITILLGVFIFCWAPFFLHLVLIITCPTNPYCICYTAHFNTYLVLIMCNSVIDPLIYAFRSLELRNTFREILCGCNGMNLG

Progesterone receptor = target: T3, Progesterone receptor (Homo sapiens, UniProt P06401); type: functional
T3 sequence (P06401 whole entry): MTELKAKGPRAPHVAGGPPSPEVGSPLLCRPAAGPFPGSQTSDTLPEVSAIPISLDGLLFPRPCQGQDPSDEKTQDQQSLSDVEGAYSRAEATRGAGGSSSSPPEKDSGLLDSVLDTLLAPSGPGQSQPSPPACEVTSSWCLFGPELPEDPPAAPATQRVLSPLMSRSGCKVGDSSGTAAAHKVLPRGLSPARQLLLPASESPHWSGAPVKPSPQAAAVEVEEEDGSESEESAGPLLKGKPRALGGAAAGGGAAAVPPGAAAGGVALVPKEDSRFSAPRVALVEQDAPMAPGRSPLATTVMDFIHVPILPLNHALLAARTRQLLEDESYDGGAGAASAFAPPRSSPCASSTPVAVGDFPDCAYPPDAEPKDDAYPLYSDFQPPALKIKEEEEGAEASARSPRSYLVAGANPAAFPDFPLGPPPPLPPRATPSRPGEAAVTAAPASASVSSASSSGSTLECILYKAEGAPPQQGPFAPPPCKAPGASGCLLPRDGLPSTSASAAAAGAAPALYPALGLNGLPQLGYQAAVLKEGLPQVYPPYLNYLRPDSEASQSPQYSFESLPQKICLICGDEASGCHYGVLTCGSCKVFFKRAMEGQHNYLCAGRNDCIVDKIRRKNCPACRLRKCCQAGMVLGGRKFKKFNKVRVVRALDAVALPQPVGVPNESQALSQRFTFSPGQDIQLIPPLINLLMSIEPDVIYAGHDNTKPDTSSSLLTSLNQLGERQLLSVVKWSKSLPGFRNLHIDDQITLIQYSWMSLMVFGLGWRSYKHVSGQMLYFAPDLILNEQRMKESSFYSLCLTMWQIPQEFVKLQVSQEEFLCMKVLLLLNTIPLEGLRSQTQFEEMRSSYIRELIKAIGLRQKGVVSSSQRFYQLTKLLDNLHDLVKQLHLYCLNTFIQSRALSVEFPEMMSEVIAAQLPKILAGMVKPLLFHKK
Further: assay procedure not described here.

Sequence of Sodium-dependent noradrenaline transporter (P23975 whole entry): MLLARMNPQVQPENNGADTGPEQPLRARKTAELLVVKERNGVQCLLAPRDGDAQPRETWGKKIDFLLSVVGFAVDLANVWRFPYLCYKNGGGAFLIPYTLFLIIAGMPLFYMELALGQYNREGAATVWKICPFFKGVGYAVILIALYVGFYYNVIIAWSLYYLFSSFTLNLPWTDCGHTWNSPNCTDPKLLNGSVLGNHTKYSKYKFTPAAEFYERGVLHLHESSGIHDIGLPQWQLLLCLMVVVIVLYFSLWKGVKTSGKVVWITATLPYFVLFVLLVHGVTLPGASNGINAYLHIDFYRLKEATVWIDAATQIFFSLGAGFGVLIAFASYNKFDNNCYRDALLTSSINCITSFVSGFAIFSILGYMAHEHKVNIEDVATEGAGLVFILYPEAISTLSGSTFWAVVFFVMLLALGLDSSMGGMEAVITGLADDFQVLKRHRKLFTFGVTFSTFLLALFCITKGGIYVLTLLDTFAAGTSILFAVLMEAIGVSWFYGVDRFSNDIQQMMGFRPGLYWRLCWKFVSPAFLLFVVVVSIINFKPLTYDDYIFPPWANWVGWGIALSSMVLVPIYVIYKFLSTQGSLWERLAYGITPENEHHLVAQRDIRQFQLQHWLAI
Sequence of Gamma-aminobutyric acid receptor subunit alpha-1 (P62813 whole entry): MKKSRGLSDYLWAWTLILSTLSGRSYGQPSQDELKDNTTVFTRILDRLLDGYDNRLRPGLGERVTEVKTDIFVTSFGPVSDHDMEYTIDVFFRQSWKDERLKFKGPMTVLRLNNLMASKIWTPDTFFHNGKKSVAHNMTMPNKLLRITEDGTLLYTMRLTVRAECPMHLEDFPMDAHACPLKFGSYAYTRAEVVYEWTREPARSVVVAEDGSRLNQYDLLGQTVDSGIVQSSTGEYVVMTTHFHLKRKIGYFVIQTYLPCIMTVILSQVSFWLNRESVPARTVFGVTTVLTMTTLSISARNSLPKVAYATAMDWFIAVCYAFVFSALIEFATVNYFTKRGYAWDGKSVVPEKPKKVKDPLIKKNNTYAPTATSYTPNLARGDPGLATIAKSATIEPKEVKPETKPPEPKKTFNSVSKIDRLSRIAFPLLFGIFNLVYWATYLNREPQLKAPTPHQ
Sequence of Kappa-type opioid receptor (P41145 whole entry): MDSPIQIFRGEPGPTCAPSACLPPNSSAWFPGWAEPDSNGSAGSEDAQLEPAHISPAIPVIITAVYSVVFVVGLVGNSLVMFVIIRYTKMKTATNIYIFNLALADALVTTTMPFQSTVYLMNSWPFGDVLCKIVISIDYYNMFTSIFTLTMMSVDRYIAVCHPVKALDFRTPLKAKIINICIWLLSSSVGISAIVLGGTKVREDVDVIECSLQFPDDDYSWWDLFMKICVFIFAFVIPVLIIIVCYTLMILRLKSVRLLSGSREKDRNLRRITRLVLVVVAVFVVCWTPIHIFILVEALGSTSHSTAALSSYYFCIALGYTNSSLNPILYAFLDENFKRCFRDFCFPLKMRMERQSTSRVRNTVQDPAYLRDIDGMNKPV

| SMILES | AC50 [1] [µM] | AC50 [2] [µM] | AC50 [3] [µM] | AC50 [4] [µM] | AC50 (Motilin receptor) [µM] | AC50 [5] [µM] | AC50 [6] [µM] | AC50 [7] [µM] | AC50 [8] [µM] | AC50 (Adenosine receptor A2a) [µM] | AC50 (Bile salt export pump) [µM] | AC50 (Melanocortin receptor 3) [µM] | AC50 (Progesterone receptor) [µM] |
| --- | --- | --- | --- | --- | --- | --- | --- | --- | --- | --- | --- | --- | --- |
| CCOc1nc2cccc(C(=O)O)c2n1Cc1ccc(-c2ccccc2-c2nnn[nH]2)cc1 | > 10 | > 10 | > 30 | > 30 | > 30 | > 30 | > 30 | > 30 | > 30 | > 30 | 100 | > 30 | > 30 |
| CCOc1cc([C@@H](CS(C)(=O)=O)N2C(=O)c3cccc(NC(C)=O)c3C2=O)ccc1OC | – | – | > 30 | > 30 | > 30 | > 30 | > 30 | > 30 | > 30 | > 30 | 139 | > 30 | > 30 |
| CC(=O)Nc1ccc(CC(=O)O)cc1 [ACTARIT] | > 30 | > 30 | > 30 | > 30 | > 30 | > 30 | > 30 | > 30 | > 30 | > 30 | > 300 | > 30 | > 30 |
| CC(C(=O)O)c1ccc2oc(-c3ccc(Cl)cc3)nc2c1 (centres undefined) [BENOXAPROFEN] | > 30 | > 30 | > 30 | > 30 | > 30 | > 30 | > 30 | 23 | > 30 | > 30 | 120 | > 30 | > 30 |
| CC1(C)S[C@@H]2[C@H](NC(=O)C(C(=O)O)c3ccccc3)C(=O)N2[C@H]1C(=O)O (some centres undefined) [CARBENICILLIN] | – | > 30 | > 30 | > 30 | > 30 | > 30 | > 30 | > 30 | > 30 | > 30 | 210 | > 30 | > 30 |
| Cc1nnc(SCC2=C(C(=O)O)N3C(=O)[C@@H](NC(=O)Cn4cnnn4)[C@H]3SC2)s1 [CEFAZOLIN] | – | > 30 | > 300 | > 300 | > 300 | > 300 | > 300 | > 300 | > 300 | > 300 | > 300 | > 300 | > 300 |
| CC=CC1=C(C(=O)O)N2C(=O)[C@@H](NC(=O)[C@H](N)c3ccc(O)cc3)[C@H]2SC1 [CEFPROZIL] | > 30 | > 30 | > 30 | > 30 | > 30 | > 30 | > 30 | > 30 | > 30 | > 30 | > 300 | > 30 | > 30 |
| Cc1nc(Nc2ncc(C(=O)Nc3c(C)cccc3Cl)s2)cc(N2CCN(CCO)CC2)n1 [DASATINIB] | – | > 10 | 6.3 | > 30 | > 30 | 9.76 | > 30 | 10 | 19 | > 30 | 22 | > 30 | > 30 |
| CC(C)Cc1ccc([C@H](C)C(=O)O)cc1 [DEXIBUPROFEN] | – | – | > 30 | > 30 | > 30 | > 30 | > 30 | > 30 | > 30 | > 30 | 188 | > 30 | > 30 |
| Cc1onc(-c2c(F)cccc2Cl)c1C(=O)N[C@@H]1C(=O)N2[C@@H]1SC(C)(C)[C@@H]2C(=O)O [FLOXACILLIN] | – | – | > 30 | > 30 | > 30 | > 30 | > 30 | > 30 | > 30 | > 30 | 50 | > 30 | > 30 |
| Cc1ccc(C)c(OCCCC(C)(C)C(=O)O)c1 [GEMFIBROZIL] | > 10 | > 10 | > 10 | > 10 | > 10 | > 30 | > 30 | > 30 | > 10 | > 30 | > 300 | > 30 | – |
| CCCCCCCN(CC)CCCC(O)c1ccc(NS(C)(=O)=O)cc1 (centres undefined) [IBUTILIDE] | > 30 | > 30 | > 30 | > 30 | > 30 | > 30 | > 30 | > 30 | 3.2 | > 30 | > 300 | > 30 | > 30 |
| CN1Cc2c(N)cccc2C(c2ccccc2)C1 (centres undefined) [NOMIFENSINE] | > 30 | > 30 | – | – | > 30 | > 30 | > 30 | 13 | > 30 | > 30 | > 300 | > 30 | > 30 |
| Cn1cc(C(=O)[C@@H]2CCc3nc[nH]c3C2)c2ccccc21 [RAMOSETRON] | > 30 | 17 | > 30 | > 30 | > 30 | > 30 | > 30 | > 30 | 11 | > 30 | > 300 | > 30 | > 30 |
| S=P(N1CC1)(N1CC1)N1CC1 [THIOTEPA] | – | – | – | > 30 | > 30 | > 30 | > 30 | 0.044 | 4.4 | > 30 | 83 | > 30 | > 30 |
| CC(C)[C@H](N)C(=O)OCCOCn1cnc2c(=O)[nH]c(N)nc21 [VALACYCLOVIR] | > 10 | > 10 | > 10 | > 10 | > 10 | > 30 | > 30 | > 30 | > 10 | > 30 | > 300 | > 30 | – |
| COc1cc(C(=O)NS(=O)(=O)c2ccccc2C)ccc1Cc1cn(C)c2ccc(NC(=O)OC3CCCC3)cc12 [ZAFIRLUKAST] | > 10 | 6.32 | > 10 | > 10 | > 10 | > 30 | > 30 | 5.9 | – | > 30 | 2.28 | > 10 | 11.2 |
